According to patent US20230181751A1, “FORMULATION OF PURE DIMETHOXY CURCUMIN-HUMAN SERUM ALBUMIN AND A PROCESS FOR THE PREPARATION THEREOF” (SREE CHITRA TIRUNAL INSTITUTE FOR MEDICAL SCIENCES AND …, priority 2020, published 2023):
Converted amounts (≈) assume the structure as drawn. Read-outs that look alike come from different tables or passages of the source.

What was measured:
[1] = cited from earlier work
[2] = storage stability of DMCHSA solution (UV and FTIR spectra); type: physicochemical
Protocol: The liquid stability of the product was analysed at 24 h interval for 48 h or 72 h. The UV spectra recorded at different storage period are shown
FTIR spectra are shown to substantiate the chemical degradation after 48 h of storage of DMCHSA solution.
The lyophilized samples were used for respective periods as prepared for liquid stability, were lyophilized and recorded FTIR spectrum.
Thus, liquid stability of DMCHSA stored for […] is evident.

[3] = cited from earlier work; remark: listed apart in the source
[4] = system: Fibroblast cell line (L929); test: MTT cytotoxicity assay, DMCHSA versus free DMC; type: cell-based, mouse; details: similar molar concentrations, 24 h-48 h
Protocol: Cancer cell lines (A549,MCF-7), Fibroblast cell line (L929), and primary cells (ECs and CCs) were cultured in 96-well plates containing 100 µl medium, kept this plate in CO2 incubator (5% CO2) at 37° C. for 24 h. DMCHSA solution was freshly prepared by dissolving the lyophilized conjugate in DMEM F12 medium and added (0.05 mg/ml, 0.1 mg/ml, 0.2 mg/ml, 0.4 mg/ml) in 96 well plate for 24 h. […] In all cultures standard MTT assay quantified viable cells after treating with DMCHSA/free DMC. Briefly, commercial MTT (0.5 mg/ml) reagent was dissolved in medium. This solution was filtered through a 0.22 µm filter and stored at 2 - 8° C. After removal of 100 µl medium, MTT dye solution was added and the plates were incubated at 37° C. for 4 h in a humidified 5% CO2 incubator, followed by 100 µl of DMSO added to each well, and mixed thoroughly to dissolve the dye crystals.
The absorbance was measured using an ELISA plate reader at 570 nm. High optical density readings corresponded to a high intensity of dye colour. The fractional absorbance was calculated by the formula: % Cell survival/PR = Mean absorbance in test × 100 Mean absorbance in control

solubility = type: physicochemical; details: water, before conjugation

UV-Vis spectral stability [2]: degrading free curcumin in 2h
solubility (solubility): 20 µM (≈ 7.37 µg/mL)
Compound: COc1cc(/C=C/C(=O)CC(=O)/C=C/c2ccc(O)c(OC)c2)ccc1O [DMC, (1E,6E)-1,7-bis(4-hydroxy-3-methoxyphenyl)hepta-1,6-dienne-3,5-dione]
half-life of DMC ([1]; in the presence of protein): 1 to 2 h
half-life of DMC ([1]; physiological pH, without protein): a few minutes
solubility in acetone, DMSO and ethyl ether [3]: very soluble
solubility in ethyl alcohol, glacial acetic acid and propylene glycol [3]: soluble
solubility in water, petroleum ether and benzene [3]: poorly soluble
cytotoxicity on fibroblasts, DMCHSA compared with free DMC [4]: less cytotoxic
